Read-outs that look alike come from different tables or passages of the source.
Columns and labels:
[1] = system: HCV replicon gt1a_H77; experiment: Cell-based HCV replicon assay (TaqMan), genotype 1a (H77); settings: replicon 1a (H77), replicon RNA by TaqMan, day 3
Procedure: (§1) Measurement of inhibition by compounds of the present invention was performed using the HCV replicon system. Several different replicons encoding different HCV genotypes or mutations were used. In addition, potency measurements were made using different formats of the replicon assay, including different ways of measurements and different plating formats. See Jan M. Vrolijk et al., A replicons-based bioassay for the measurement of interferons in patients with chronic hepatitis C, 110 J. VIROLOGICAL METHODS 201 (2003); Steven S. Carroll et al., Inhibition of Hepatitis C Virus RNA Replication by 2′-Modified Nucleoside Analogs, 278(14) J. BIOLOGICAL […] 11979 (2003). However, the underlying principles are common to all of these determinations, and are outlined below.
(§2) Compounds of the present invention were assayed for cell-based anti-HCV activity using the following protocol. Replicon cells were seeded at 5000 cells/well in 96-well collagen I-coated Nunc plates in the presence of the test compound. Various concentrations of test compound, typically in 10 serial 2-fold dilutions, were added to the assay mixture, with the starting concentration ranging from 250 μM to 1 μM. The final concentration of DMSO was 0.5%, fetal bovine serum was 5%, in the assay media. Cells were harvested on day 3 by the addition of 1× cell lysis buffer (Ambion cat #8721). The replicon RNA level was measured using real time PCR (TaqMan® assay). The amplicon was located in 5B. The PCR primers were: 5B.2F, […] (SEQ. ID NO. 1); 5B.2R, […] (SEQ. ID NO. 2); the probe sequence was FAM-labeled […] (SEQ. ID NO. 3). GAPDH RNA was used as endogenous control and was amplified in the same reaction as NS5B (multiplex PCR) using primers and VIC-labeled probe recommended by the manufacturer (PE Applied Biosystem). The real-time RT-PCR reactions were run on ABI PRISM 7900HT Sequence Detection System using the following program: 48° C. for 30 minutes, 95° C. for 10 minutes, 40 cycles of 95° C. for 15 sec, 60° C. for 1 minute. The ΔCT values (CT5B-CTGAPDH) were plotted against the concentration of test compound and fitted to the sigmoid dose-response model using XLfit4 (MDL). […] Alternatively, to quantitate the absolute amount of replicon RNA, a standard curve was established by including serially diluted T7 transcripts of replicon RNA in the Taqman assay. All TaqMan® reagents were from PE Applied Biosystems. Such an assay procedure was described in detail in e.g. Malcolm et al., Antimicrobial Agents and Chemotherapy 50: 1013-1020 (2006).
(§3) Wherein gt1a_H77 was prepared as described in Yi et al., J Virol. 2004, 78(15):7904-15; gt1b_con1 was prepared as described in Lohmann et al., Science 1999, 285(5424):110-3; and gt2a_JFH was prepared as described in Kato et al., Gastroenterology. 2003, 125(6):1808-17. Chimeric replicons contain NS5A from patient isolates of genotypes 1a, 1b, 2b, 3a and 4a as indicated.

[2] = system: HCV replicon gt1b_con1; experiment: Cell-based HCV replicon assay (TaqMan), genotype 1b (Con1); settings: replicon 1b (Con1), replicon RNA by TaqMan, day 3
Procedure: as §1, §2, §3

[3] = system: HCV replicon gt2a_JFH; experiment: Cell-based HCV replicon assay (TaqMan), genotype 2a (JFH); settings: replicon 2a (JFH), replicon RNA by TaqMan, day 3
Procedure: as §1, §2, §3

[4] = system: HCV chimeric replicon with NS5A of genotype 2b (AB03090); experiment: Cell-based HCV replicon assay (TaqMan), chimeric replicon genotype 2b (AB03090); settings: replicon RNA by TaqMan, day 3
Procedure: as §1, §2, §3

[5] = system: HCV chimeric replicon with NS5A of genotype 3a (NC00982); experiment: Cell-based HCV replicon assay (TaqMan), chimeric replicon genotype 3a (NC00982); settings: replicon RNA by TaqMan, day 3
Procedure: as §1, §2, §3

[6] = system: HCV replicon 1a (Y93H) mutant; experiment: Cell-based HCV replicon assay (TaqMan), genotype 1a mutant Y93H; settings: read-out: HCV replicon EC50 1a (Y93H)
Procedure: as §1, §2, §3

[7] = system: HCV replicon 1a (L31V) mutant; experiment: Cell-based HCV replicon assay (TaqMan), genotype 1a mutant L31V; settings: read-out: HCV replicon EC50 1a (L31V)
Procedure: as §1, §2, §3

[8] = system: HCV chimeric replicon with NS5A of genotype 4a (DQ41878); experiment: Cell-based HCV replicon assay (TaqMan), chimeric replicon genotype 4a (DQ41878); settings: read-out: HCV replicon EC50 4a (DQ41878)
Procedure: as §1, §2, §3

[9] = Hepatitis C virus, 72 h, read-out: HCV replicon EC50 2b (AB03090), chimeric replicon 2b (AB03090)
[10] = Hepatitis C virus, 72 h, read-out: HCV replicon EC50 3a (NC00982), chimeric replicon 3a (NC00982)
[11] = read-out: HCV replicon EC50 2b (AB03090), chimeric replicon 2b (AB03090)
[12] = read-out: HCV replicon EC50 3a (NC00982), chimeric replicon 3a (NC00982)
[13] = chimeric replicon 4a (DQ41878), replicon RNA by TaqMan, day 3
[14] = replicon 1a mutant Y93H, replicon RNA by TaqMan, day 3

Compound `COC(=O)N[C@H](C(=O)N1C[Si](C)(C)C[C@H]1c1ncc(-c2ccc(-c3ccc4c(ccc5nc([C@@H]6CC(F)(F)CN6C(=O)[C@@H](NC(=O)OC)C(C)C)[nH]c54)c3)nc2)[nH]1)C(C)C` [Compound 66] has an EC50 ([1]; Hepatitis C virus, 72 h) of 0.002 nM, an EC50 ([2]; Hepatitis C virus, 72 h) of 0.005 nM and an EC50 ([3]; Hepatitis C virus, 72 h) of 0.08 nM. For the same compound, the EC50 [4, 9] was > 100 nM, the EC50 [5, 10] was 0.15 nM and the EC50 ([6]; Hepatitis C virus, 72 h) was 260 nM. It also gave an EC50 ([7]; Hepatitis C virus, 72 h) of 32 nM.
`COC(=O)N[C@H](C(=O)N1C[Si](C)(C)C[C@H]1c1ncc(-c2ccc(-c3ccc4c(ccc5nc([C@@H]6CC(F)(F)CN6C(=O)[C@@H](NC(=O)OC)C(C)C)[nH]c54)c3)cc2)[nH]1)C(C)C` [Compound 94] gave an EC50 [1] of 0.008 nM, an EC50 [2] of 0.002 nM and an EC50 [3] of 0.03 nM. For the same compound, the EC50 [4, 11] was 129 nM, the EC50 [5, 12] was 0.2 nM and the EC50 [8, 13] was 0.02 nM. It also gave an EC50 [6, 14] of 65 nM and an EC50 ([7]; replicon 1a mutant L31V, replicon RNA by TaqMan, day 3) of 10 nM.
With `COC(=O)N[C@H](C(=O)N1CC(F)(F)C[C@H]1c1ncc(-c2ccc(-c3ccc4c(ccc5nc([C@@H]6C[Si](C)(C)CN6C(=O)[C@@H](NC(=O)OC)C(C)C)[nH]c54)c3)cc2)[nH]1)C(C)C` [Compound 92] the EC50 [1] was 0.015 nM, the EC50 [2] was 0.003 nM and the EC50 [3] was 0.02 nM. It also gave an EC50 [4, 11] of 48 nM, an EC50 [5, 12] of 0.35 nM and an EC50 [8, 13] of 0.02 nM. For the same compound, the EC50 [6, 14] was 46 nM.
`COC(=O)N[C@H](C(=O)N1C[Si](C)(C)C[C@H]1c1ncc(-c2ccc(-c3ccc4c(ccc5nc([C@@H]6CC(F)(F)CN6C(=O)[C@@H](NC(=O)OC)C(C)C)[nH]c54)c3)cc2)[nH]1)C(C)C` [Compound 54] showed an EC50 ([1]; Hepatitis C virus, 72 h) of 0.009 nM, an EC50 ([2]; Hepatitis C virus, 72 h) of 0.002 nM and an EC50 ([3]; Hepatitis C virus, 72 h) of 0.03 nM. The EC50 [4, 9] was 128 nM, the EC50 [5, 10] was 0.18 nM and the EC50 ([8]; Hepatitis C virus, 72 h) was 0.02 nM. The EC50 ([6]; Hepatitis C virus, 72 h) was 65 nM and the EC50 ([7]; Hepatitis C virus, 72 h) was 10 nM.
`COC(=O)N[C@H](C(=O)N1C[Si](C)(C)C[C@H]1c1nc2ccc3cc(-c4ccc(-c5cnc([C@@H]6C[C@H]7C[C@H]7N6C(=O)[C@@H](NC(=O)OC)C(C)C)[nH]5)cc4)ccc3c2[nH]1)C(C)C` [Compound 97] was tested, and the EC50 ([1]; Hepatitis C virus, 72 h) was 0.005 nM, the EC50 ([2]; Hepatitis C virus, 72 h) was 0.002 nM and the EC50 ([3]; Hepatitis C virus, 72 h) was 0.005 nM. For the same compound, the EC50 [4, 9] was 17.1 nM, the EC50 [5, 10] was 0.09 nM and the EC50 ([8]; Hepatitis C virus, 72 h) was 0.029 nM. For the same compound, the EC50 ([6]; Hepatitis C virus, 72 h) was 30 nM and the EC50 ([7]; Hepatitis C virus, 72 h) was 15 nM.
`COC(=O)N[C@H](C(=O)N1CC[C@H](C)[C@H]1c1ncc(-c2ccc(-c3ccc4c(ccc5nc([C@@H]6C[Si](C)(C)CN6C(=O)[C@@H](NC(=O)OC)C(C)C)[nH]c54)c3)cc2)[nH]1)C(C)C` [Compound 96] was tested, and the EC50 ([1]; Hepatitis C virus, 72 h) was 0.04 nM, the EC50 ([2]; Hepatitis C virus, 72 h) was 0.004 nM and the EC50 ([3]; Hepatitis C virus, 72 h) was 0.013 nM. The EC50 [4, 9] was 49.3 nM, the EC50 [5, 10] was 0.099 nM and the EC50 ([8]; Hepatitis C virus, 72 h) was 0.936 nM. For the same compound, the EC50 ([6]; Hepatitis C virus, 72 h) was 51 nM and the EC50 ([7]; Hepatitis C virus, 72 h) was 1 nM.
`CC(C)[C@H](NC(=O)OC1(C)CC1)C(=O)N1CCC(F)(F)C[C@H]1c1ncc(-c2ccc(-c3ccc4c(ccc5nc([C@@H]6C[Si](C)(C)CN6C(=O)[C@@H](NC(=O)OC6(C)CC6)C(C)C)[nH]c54)c3)cc2)[nH]1` [Compound 86] was tested, and the EC50 ([1]; Hepatitis C virus, 72 h) was > 1 nM, the EC50 ([2]; Hepatitis C virus, 72 h) was 141 nM and the EC50 ([3]; Hepatitis C virus, 72 h) was > 10 nM. For the same compound, the EC50 [5, 10] was > 100 nM, the EC50 ([8]; Hepatitis C virus, 72 h) was > 100 nM and the EC50 ([6]; Hepatitis C virus, 72 h) was > 1000 nM. For the same compound, the EC50 ([7]; Hepatitis C virus, 72 h) was > 1000 nM.
In the case of `COC(=O)N[C@H](C(=O)N1C[Si](C)(C)C[C@H]1c1nc2ccc3cc(-c4ccc(-c5cnc([C@@H]6[C@@H]7C[C@@H]([C@@H](F)[C@H]7F)N6C(=O)[C@@H](NC(=O)OC6(C)CC6)C(C)C)[nH]5)cc4)ccc3c2[nH]1)C(C)C` [Compound 101], the EC50 ([1]; Hepatitis C virus, 72 h) is reported as > 1 nM, the EC50 ([2]; Hepatitis C virus, 72 h) is reported as 0.023 nM and the EC50 ([3]; Hepatitis C virus, 72 h) is reported as > 10 nM. The EC50 [5, 10] was 54.6 nM, the EC50 ([8]; Hepatitis C virus, 72 h) was > 100 nM and the EC50 ([6]; Hepatitis C virus, 72 h) was > 1000 nM. For the same compound, the EC50 ([7]; Hepatitis C virus, 72 h) was > 1000 nM.
With `CC(C)OC(=O)N[C@H](C(=O)N1CCC(F)(F)C[C@H]1c1ncc(-c2ccc(-c3ccc4c(ccc5nc([C@@H]6C[Si](C)(C)CN6C(=O)[C@@H](NC(=O)OC(C)C)C(C)C)[nH]c54)c3)cc2)[nH]1)C(C)C` [Compound 88] the EC50 ([1]; Hepatitis C virus, 72 h) was > 1 nM, the EC50 ([2]; Hepatitis C virus, 72 h) was 4 nM and the EC50 ([3]; Hepatitis C virus, 72 h) was > 10 nM. The EC50 [5, 10] was > 100 nM, the EC50 ([8]; Hepatitis C virus, 72 h) was > 100 nM and the EC50 ([6]; Hepatitis C virus, 72 h) was > 1000 nM. The EC50 ([7]; Hepatitis C virus, 72 h) was > 1000 nM.
For `COC(=O)N[C@H](C(=O)N1CCC(F)(F)C[C@H]1c1ncc(-c2ccc(-c3ccc4c(ccc5nc([C@@H]6C[Si](C)(C)CN6C(=O)[C@@H](NC(=O)OC)C(C)C)[nH]c54)c3)cc2)[nH]1)C(C)C` [Compound 85], the EC50 ([1]; Hepatitis C virus, 72 h) was 0.102 nM, the EC50 ([2]; Hepatitis C virus, 72 h) was 0.009 nM and the EC50 ([3]; Hepatitis C virus, 72 h) was 0.065 nM. It also gave an EC50 [5, 10] of 0.69 nM, an EC50 ([8]; Hepatitis C virus, 72 h) of 1.16 nM and an EC50 ([6]; Hepatitis C virus, 72 h) of 728 nM. The EC50 ([7]; Hepatitis C virus, 72 h) was 89 nM.

Reference: patent US8609635B2, “Fused tricyclic silyl compounds and methods of use thereof for the treatment of viral diseases” (priority 2010, dated 2013)
